In one series the test system is SW-1116 cells. As to the kind of experiment: Growth inhibition of SW-1116 cells derived from colon cancer, 96 h, methylene blue staining. The class given is cell-based. How it is done:
(§1) After 24-hour incubation under the conditions of 37° C. and 5% CO2, 10 μl of the novel fat-soluble platinum complex was added in various concentrations and the PC-3 cells and SW-1116 cells were further cultured for 72 hours and 96 hours, respectively. Thereafter, the culture was drawn off from each well by using an aspirator, fixed with MeOH, then added with a 0.05% methylene blue/10 mM tris-(hydroxymethyl)aminomethanehydrochloric acid buffer solution (pH 8.5) at a rate of 100 μl/well and stained at room temperature for 30 minutes. Thereafter, each well was cleared of the staining solution by using an aspirator and washed three times with pure water. Then 3% hydrochloric acid solution was added at a rate of 200 μl/well, and after sealing, the culture was left at room temperature for about 24 hours and the pigment was extracted from the cells. The absorbance (A660) of each well at 660 nm was measured by a dynamic microplate reader, and the growth inhibition rate (%) at each concentration was calculated from the following equation. […] [formula]

The next series concerns PC-3 cells. As to the kind of experiment: Growth inhibition of PC-3 cells derived from lung cancer, 72 h, methylene blue staining. Type of series: cell-based. Here is the method: as §1
The conditions of series [1]: in words, clinical use; cited from earlier work.
For series [2] the following is noted: in words, prior art; cited from earlier work.

These results are taken from patent publication US5130450A, “Platinum complexes” (Nippon Kayaku Kabushiki Kaisha, priority 1990, dated 1992).

On to `CC(C)(O)C(=O)[O-].CC(C)(O)C(=O)[O-].N[C@@H]1CCCC[C@H]1N.[Pt+2]` (relative stereo) [compound No. 8, cis-Bis(2-hydroxy-2-methylpropionato)-trans-1,2-diaminocyclohexane platinum (II)], for which, in the series with SW-1116 cells, the “IC50 SW-1116” value turned out to be 0.21 µg/mL. The “IC50 PC-3” value in the series on PC-3 cells came to 1.57 µg/mL.
`CC(C)(CO)C(=O)[O-].CC(C)(CO)C(=O)[O-].N[C@@H]1CCCC[C@H]1N.[Pt+2]` (relative stereo) [compound No. 10, cis-Bis(3-hydroxy-2,2-dimethylpropionato)-trans-1,2-diaminocyclohexane platinum (II)]: in the series on SW-1116 cells, the “IC50 SW-1116” value came out at 0.065 µg/mL. For the same compound, the “IC50 PC-3” value in the series with PC-3 cells amounted to 0.50 µg/mL.
Take `CC(O)(CCO)CC(=O)[O-].CC(O)(CCO)CC(=O)[O-].N[C@@H]1CCCC[C@H]1N.[Pt+2]` (relative stereo) [compound No. 13, Cis-Bis(3,5-dihydroxy-3-methylvalerato)-trans-1,2-diaminocyclohexane platinum (II)]: the “IC50 SW-1116” value in the series on SW-1116 cells was 0.085 µg/mL. The “IC50 PC-3” value in the series on PC-3 cells amounted to 0.76 µg/mL.
As to `CC(C)(CO)[C@@H](O)C(=O)NCCC(=O)[O-].CC(C)(CO)[C@@H](O)C(=O)NCCC(=O)[O-].N[C@@H]1CCCC[C@H]1N.[Pt+2]` (stereo in doubt) [compound No. 17, cis-Bis[(R)-pantothenato]-trans-(R,R)-1,2-diaminocyclohexane platinum (II)], in the series with SW-1116 cells, the “IC50 SW-1116” value worked out at 0.082 µg/mL. In addition, in the series with PC-3 cells, the “IC50 PC-3” value is 0.60 µg/mL.
Turning to `CC(C)(CO)C(=O)[O-].CC(C)(CO)C(=O)[O-].C[C@@H](CN)CCN.[Pt+2]` (stereo in doubt) [compound No. 20, cis-Bis(3-hydroxy-2,2-dimethylpropionato)(R)-1,4-diamino-2-methylbutane platinum (II)], the Solubility in water is more than 20 mg/mL. Besides, the “IC50 SW-1116” value in the series on SW-1116 cells was 0.36 µg/mL. In the series with PC-3 cells, the “IC50 PC-3” value amounted to 0.35 µg/mL.
The corresponding values for `CC(C)(CO)C([O-])C(=O)[O-].C[C@@H](CN)CCN.[Pt+2]` (stereo in doubt) [compound No. 21, cis-[2-(2-Hydroxy-1,1-dimethylethyl)-glycolato-O,O']-(R)-1,4-diamino-2-methylbutane platinum (II)] are more than 100 mg/mL, 0.37 µg/mL and 0.53 µg/mL.
For the compound `N.N.[Cl][Pt][Cl]` [cis-Platin, cis-dichlorodiammine platinum (II), reference compound], the side effects entry in series [1] is “strong side effects such as renal toxicity and vomitting toxicity”. Also, the “IC50 SW-1116” value with SW-1116 cells came out at 0.36 µg/mL. Moreover, the antitumor effect result in series [2] is “very excellent antitumor effect”. Further, in the series with PC-3 cells, the “IC50 PC-3” value is 0.40 µg/mL.
Regarding `CC(C)(CO)[C@@H](O)C(=O)[O-].CC(C)(CO)[C@@H](O)C(=O)[O-].NCC1(N)CCCCC1.[Pt+2]` [compound No. 4, cis-Bis[(R)-2,4-dihydroxy-3,3-dimethylbutyrato]-1-amino-1-aminomethylcyclohexane platinum (II)], the Solubility in water is more than 100 mg/mL. Moreover, the “IC50 SW-1116” value in the series with SW-1116 cells was determined as 0.37 µg/mL. The “IC50 PC-3” value with PC-3 cells was determined as 0.73 µg/mL.
For `CC(C)(CO)C(O)C(=O)[O-].CC(C)(CO)C(O)C(=O)[O-].NC1CCCCC1N.[Pt+2]` [compound No. 9, cis-Bis[(S)-2,4-dihydroxy-3,3-dimethylbutyrato]-trans-(R,R)-1,2-diaminocyclohexane platinum (II)], the “IC50 SW-1116” value with SW-1116 cells was 0.057 µg/mL. Besides, the “IC50 PC-3” value in the series with PC-3 cells worked out at 0.45 µg/mL.
In turn, `CC(O)(CCO)CC(=O)[O-].CC(O)(CCO)CC(=O)[O-].N.N.[Pt+2]` (stereo not drawn) [compound No. 12, cis-Bis(3,5-dihydroxy-3-methylvalerato)-diammine platinum (II)] gave a Solubility in water of more than 100 mg/mL.
Compound `CC(O)(CCO)CC(=O)[O-].CC(O)(CCO)CC(=O)[O-].NCC1(N)CCCCC1.[Pt+2]` (stereo not drawn) [compound No. 15, cis-Bis(3,5-dihydroxy-3-methylvalerato)-1-amino-1-aminomethylcyclohexane platinum (II)] yielded a Solubility in water of more than 100 mg/mL. Also, the “IC50 SW-1116” value in the series with SW-1116 cells stood at 0.14 µg/mL. For the same compound, the “IC50 PC-3” value in the series on PC-3 cells was determined as 0.80 µg/mL.
Take `CC(C)(CO)C([O-])C(=O)[O-].NC1CCCCC1N.[Pt+2]` (stereo not drawn) [compound No. 18, cis-[2-(2-Hydroxy-1,1-dimethylethyl)-glycolato-O,O']-trans-1,2-diaminocyclohexane platinum (II)]: in the series on SW-1116 cells, the “IC50 SW-1116” value was 0.25 µg/mL. Also, in the series with PC-3 cells, the “IC50 PC-3” value was determined as 2.03 µg/mL.
For the compound `CC(C)(CO)C(O)C(=O)[O-].CC(C)(CO)C(O)C(=O)[O-].CC(CN)CCN.[Pt+2]` [compound No. 19, cis-Bis[(R)-2,4-dihydroxy-3,3-dimethylbutyrato]-(R)-1,4-diamino-2-methylbutane platinum (II)], the “IC50 SW-1116” value with SW-1116 cells was 0.36 µg/mL. Moreover, in the series on PC-3 cells, the “IC50 PC-3” value was found to be 0.40 µg/mL.
As to “cis-Bis[(R)-2,4-dihydroxy-3,3-dimethylbutyrato]-trans-(R,R)-1,2-diaminocyclohexane platinum (II) [compound No. 5]”, the Solubility in water was more than 100 mg/mL. Moreover, the “IC50 SW-1116” value with SW-1116 cells was 0.060 µg/mL. In addition, the “IC50 PC-3” value in the series on PC-3 cells stood at 0.60 µg/mL.
As to “cis-Bis[(R)-2,4-dihydroxy-3,3-dimethylbutyrato]diammine platinum (II) [compound No. 1]”, the Solubility in water was more than 100 mg/mL.
